From patent US11365199B2, “Pyrazole compounds as modulators of FSHR and uses thereof” (Merck Patent GmbH, priority 2013, dated 2022)
pEC50: −log10 of the molar value.

biological target: T1, FSHR (Homo sapiens, UniProt P23945); assay: EC50 of cyclic AMP production in CHO FSHR cells + EC20 FSH (Assay A); format: cell-based; settings: CHO FSHR cells + EC20 FSH, cAMP HTRF; read-out: Assay A: EC50 of cyclic AMP production
T1 construct: expressed in transfected cells; host or cells: CHO (Cho-FSHR-LUC-1-1-43)
T1 sequence (P23945 18-695): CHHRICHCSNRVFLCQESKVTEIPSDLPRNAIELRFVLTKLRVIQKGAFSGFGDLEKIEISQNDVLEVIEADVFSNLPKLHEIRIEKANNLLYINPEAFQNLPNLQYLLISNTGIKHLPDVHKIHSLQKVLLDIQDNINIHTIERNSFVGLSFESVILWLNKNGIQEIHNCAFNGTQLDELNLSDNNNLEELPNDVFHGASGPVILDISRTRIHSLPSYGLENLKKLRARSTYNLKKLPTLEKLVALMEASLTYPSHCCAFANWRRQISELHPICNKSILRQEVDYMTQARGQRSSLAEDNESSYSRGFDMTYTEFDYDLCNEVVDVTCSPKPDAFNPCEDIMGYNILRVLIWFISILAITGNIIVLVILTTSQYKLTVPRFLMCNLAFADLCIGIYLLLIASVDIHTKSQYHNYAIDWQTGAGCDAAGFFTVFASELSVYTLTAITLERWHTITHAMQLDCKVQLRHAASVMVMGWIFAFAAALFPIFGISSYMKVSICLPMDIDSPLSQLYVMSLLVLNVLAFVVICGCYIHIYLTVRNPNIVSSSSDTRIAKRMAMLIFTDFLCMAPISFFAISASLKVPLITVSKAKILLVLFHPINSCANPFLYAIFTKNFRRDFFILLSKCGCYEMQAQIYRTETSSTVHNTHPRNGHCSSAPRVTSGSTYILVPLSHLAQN
Method: EC50 of Cyclic AMP Production in CHO FSHR Cells+EC20 FSH (Assay A)
2500 Cho-FSHR-LUC-1-1-43 cells were plated per well in 5 μl of phenol red free DMEM/F12+1% FBS. Cells were plated in 384 well, solid white low volume plates (Greiner 784075) by Multidrop. Cells were assayed by adding 100 μl of 2×EC20 FSH/IBMX in DMEM/F12+0.1% BSA) by Multidrop to 2 μl of test compound stamped in 384 well plates (compounds are diluted 1:50). The final FSH concentration was […], and the final IBMX concentration was 200 μM. The compound plate map was as follows: Column 1: 2 μl of DMSO; Column 2: 2 μl of DMSO; Columns 3-12 and 13-24: 2 μl of test compound, diluted 1:4 in 100% DMSO, or 2 μl of FSH, diluted 1:4 in DMEM/F12+0.1% BSA. The starting concentration for FSH was 50 nM (final concentration was 0.5 nM). Furthermore, Column 23 contained 2 μl of EC100 FSH reference (100×) (diluted in DMEM/F12+0.1% BSA) at a final concentration of 0.5 nM, and Column 24 contained 2 μl of 1 mM AS707664/2 reference compound 2. 5 μl of compound+EC20 FSH mixture were transferred to cell plates (1:2 dilution into 5 μl of cell media) The plates were incubated at 37° C. for 1 h. 10 μl of mixed HTRF (CisBio #62AM4PEC) reagents were added per well and incubated at room temperature for 1 h. The plates were read on Envision using the cAMP HTRF—low volume 384 well protocol. The readout was the calculated fluorescence ratio (665 nm/620 nm). Values given in percent (%) indicate the percental effect (response) at a certain concentration of agonist relative to the maximum response of the FSH standard.

| pEC50 | Compound |
| --- | --- |
| > 7.00 | COc1cc2c(cc1-c1c(C)cnn1C)-c1c(c(C(=O)N(C)C(C)(C)C)nn1-c1ccsc1)CO2 [Compound 76, 8-(2,4-Dimethyl-2H-pyrazol-3-yl)-7-methoxy-1-thiophen-3-yl-1,4-dihydro-chromeno[4,3-c]pyrazole-3-carboxylic acid tert-butyl-methyl-amide] |
| > 7.00 | COc1cc2c(cc1CC(C)C)-c1c(c(C(=O)N3CCOCC3(C)C)nn1-c1ccsc1)CO2 [Compound 77, (3,3-Dimethyl-morpholin-4-yl)-(8-isobutyl-7-methoxy-1-thiophen-3-yl-1,4-dihydro-chromeno[4,3-c]pyrazol-3-yl)-methanone] |
| > 7.00 | [2H]C([2H])([2H])N(CCN1CCOC1=O)C(=O)c1nn(-c2ccsc2)c2c1COc1cc(OC)c(-c3cnn(C([2H])([2H])[2H])c3)cc1-2 [Compound 78] |
| > 7.00 | COc1cc2c(cc1-c1cn[nH]c1)-c1c(c(C(=O)N3CCOCC3(C)C)nn1-c1ccsc1)CO2 [Compound 80, (3,3-Dimethyl-morpholin-4-yl)-[7-methoxy-8-(1H-pyrazol-4-yl)-1-thiophen-3-yl-1,4-dihydro-chromeno[4,3-c]pyrazol-3-yl]-methanone] |
| > 7.00 | COc1cc2c(cc1-c1cscn1)-c1c(c(C(=O)N(C)C(C)(C)C)nn1-c1ccsc1)CO2 [Compound 81, 7-Methoxy-8-thiazol-4-yl-1-thiophen-3-yl-1,4-dihydro-chromeno[4,3-c]pyrazole-3-carboxylic acid tert-butyl-methyl-amide] |
| < 5.30 | [2H]C([2H])([2H])N(CCCN(C(=O)c1nn(-c2ccsc2)c2c1COc1cc(OC)c(CC(C)C)cc1-2)C([2H])([2H])[2H])C(C)=O [Compound 84] |
| > 7.00 | [2H]C([2H])([2H])N(CCN1CCOC1=O)C(=O)c1nn(-c2ccsc2)c2c1COc1cc(OC)c(-c3cn[nH]c3)cc1-2 [Compound 85] |
| > 7.00 | COc1cc2c(cc1C#N)-c1c(c(C(=O)N3CCOCC3(C)C)nn1-c1ccsc1)CO2 [Compound 86, 3-(3,3-Dimethyl-morpholine-4-carbonyl)-7-methoxy-1-thiophen-3-yl-1,4-dihydro-chromeno[4,3-c]pyrazole-8-carbonitrile] |
| 6.00 to 7.00 | [2H]C([2H])([2H])N(CCNC(C)=O)C(=O)c1nn(-c2ccsc2)c2c1COc1cc(OC)c(C=C(C)C)cc1-2 [Compound 87] |
| > 7.00 | COc1cc2c(cc1-c1sccc1C)-c1c(c(C(=O)N(C)C(C)(C)C)nn1-c1ccsc1)CO2 [Compound 88, 7-Methoxy-8-(3-methyl-thiophen-2-yl)-1-thiophen-3-yl-1,4-dihydro-chromeno[4,3-c]pyrazole-3-carboxylic acid tert-butyl-methyl-amide] |
| > 7.00 | COc1cc2c(cc1C=C(C)C)-c1c(c(C(=O)N(C)C(C)(C)C)nn1-c1nccs1)CO2 [Compound 89, 7-Methoxy-8-(2-methyl-propenyl)-1-thiazol-2-yl-1,4-dihydro-chromeno[4,3-c]pyrazole-3-carboxylic Acid tert-butyl-methyl-amide] |
| > 7.00 | COc1cc2c(cc1-c1cnc(C)n1C)-c1c(c(C(=O)N(C)C(C)(C)C)nn1-c1ccsc1)CO2 [Compound 92, 8-(2,3-Dimethyl-3H-imidazol-4-yl)-7-methoxy-1-thiophen-3-yl-1,4-dihydro-chromeno[4,3-c]pyrazole-3-carboxylic acid tert-butyl-methyl-amide] |
| 6.00 to 7.00 | COc1cc2c(cc1-c1ccn(C)n1)-c1c(c(C(=O)NC3(C)COC3)nn1-c1ccsc1)CO2 [Compound 100, 7-Methoxy-8-(1-methyl-1H-pyrazol-3-yl)-1-thiophen-3-yl-1,4-dihydro-chromeno[4,3-c]pyrazole-3-carboxylic acid (3-methyl-oxetan-3-yl)-amide] |
| > 7.00 | COc1cc2c(cc1-c1ccn(C)c1)-c1c(c(C(=O)N(C)CC3(C)COC3)nn1-c1ccsc1)CO2 [Compound 101, 7-Methoxy-8-(1-methyl-1H-pyrrol-3-yl)-1-thiophen-3-yl-1,4-dihydro-chromeno[4,3-c]pyrazole-3-carboxylic acid methyl-(3-methyl-oxetan-3-ylmethyl)-amide] |
| 6.00 to 7.00 | COc1cc2c(cc1-c1ccn(C)n1)-c1c(c(C(=O)N(C)CC3(C)COC3)nn1-c1ccsc1)CO2 [Compound 102, 7-Methoxy-8-(1-methyl-1H-pyrazol-3-yl)-1-thiophen-3-yl-1,4-dihydro-chromeno[4,3-c]pyrazole-3-carboxylic acid methyl-(3-methyl-oxetan-3-ylmethyl)-amide] |
| 6.00 to 7.00 | COc1cc2c(cc1-c1ccn(C)c1)-c1c(c(C(=O)N(C)C3COC3)nn1-c1ccsc1)CO2 [Compound 103, 7-Methoxy-8-(1-methyl-1H-pyrrol-3-yl)-1-thiophen-3-yl-1,4-dihydro-chromeno[4,3-c]pyrazole-3-carboxylic acid methyl-oxetan-3-yl-amide] |
| 5.30 to 6.00 | COc1cc2c(cc1-c1ccn(C)n1)-c1c(c(C(=O)N(C)C3COC3)nn1-c1ccsc1)CO2 [Compound 104, 7-Methoxy-8-(1-methyl-1H-pyrazol-3-yl)-1-thiophen-3-yl-1,4-dihydro-chromeno[4,3-c]pyrazole-3-carboxylic acid methyl-oxetan-3-yl-amide] |
| 6.00 to 7.00 | COc1cc2c(cc1S(=O)(=O)C1CC1)-c1c(c(C(=O)N3CCOCC3(C)C)nn1-c1ccsc1)CO2 [Compound 106, (8-Cyclopropanesulfonyl-7-methoxy-1-thiophen-3-yl-1,4-dihydro-chromeno[4,3-c]pyrazol-3-yl)-(3,3-dimethyl-morpholin-4-yl)-methanone] |
| < 5.30 | [2H]C([2H])([2H])NC(=O)[C@H]1CCC[C@@H](N(C(=O)c2nn(-c3ccsc3)c3c2COc2cc(OC)c(C=C(C)C)cc2-3)C([2H])([2H])[2H])C1 [Compound 107] |
| 6.00 to 7.00 | COc1cc2c(cc1-c1ccnn1C)-c1c(c(C(=O)NC3(C)COC3)nn1-c1ccsc1)CO2 [Compound 109, 7-Methoxy-8-(2-methyl-2H-pyrazol-3-yl)-1-thiophen-3-yl-1,4-dihydro-chromeno[4,3-c]pyrazole-3-carboxylic acid (3-methyl-oxetan-3-yl)-amide] |
| > 7.00 | COc1cc2c(cc1-c1ccnn1C)-c1c(c(C(=O)N(C)CC3(C)COC3)nn1-c1ccsc1)CO2 [Compound 110, 7-Methoxy-8-(2-methyl-2H-pyrazol-3-yl)-1-thiophen-3-yl-1,4-dihydro-chromeno[4,3-c]pyrazole-3-carboxylic acid methyl-(3-methyl-oxetan-3-ylmethyl)-amide] |
| 6.00 to 7.00 | COc1cc2c(cc1-c1ccnn1C)-c1c(c(C(=O)NC3(CO)COC3)nn1-c1ccsc1)CO2 [Compound 111, 7-Methoxy-8-(2-methyl-2H-pyrazol-3-yl)-1-thiophen-3-yl-1,4-dihydro-chromeno[4,3-c]pyrazole-3-carboxylic acid (3-hydroxymethyl-oxetan-3-yl)-amide] |
| 5.30 to 6.00 | COc1cc2c(cc1S(=O)(=O)C(C)C)-c1c(c(C(=O)N3CCOCC3(C)C)nn1-c1ccsc1)CO2 [Compound 112, (3,3-Dimethyl-morpholin-4-yl)-[7-methoxy-8-(propane-2-sulfonyl)-1-thiophen-3-yl-1,4-dihydro-chromeno[4,3-c]pyrazol-3-yl]-methanone] |
| 6.00 to 7.00 | COc1cc2c(cc1C=C(C)C)-c1c(c(C(=O)N3CCOCC3)nn1-c1ccsc1)CO2 [Compound 117, [7-Methoxy-8-(2-methyl-propenyl)-1-thiophen-3-yl-1,4-dihydro-chromeno[4,3-c]pyrazol-3-yl]-morpholin-4-yl-methanone] |

| Compound | pEC50 |
| --- | --- |
| COc1cc2c(cc1C=C(C)C)-c1c(c(C(=O)N(C)C(C)(C)C)nn1-c1cccs1)CO2 [Compound 90, 7-Methoxy-8-(2-methyl-propenyl)-1-thiophen-2-yl-1,4-dihydro-chromeno[4,3-c]pyrazole-3-carboxylic Acid tert-butyl-methyl-amide] | > 7.00 |
